Reference: patent US7291451B2, “Modulation of pericyte proliferation” (XOMA Technology Ltd., priority 2000, dated 2007)

Assays:
[1] = system: bovine retinal endothelial cells (BREC); experiment: Cell growth assay (DNA content) in bovine retinal endothelial cells; assay type: cell-based
Procedure: Primary cultures of bovine retinal endothelial cells (BREC) were isolated by homogenization and a series of filtration steps as described in King et al., J. Clin. Invest., 1985, 75:1028-36. BREC were subsequently cultured with endothelial cell basal medium (EBM; Clonetics, San Diego, Calif.). supplemented with 10% plasma-derived horse serum (PDHS), 50 mg/l heparin, and 50 μg/ml endothelial cell growth factor (ECGF, Roche, Indianapolis, Ind.). Cells were characterized for homogeneity by their immunoreactivity with anti-factor VIII antibody. Cells remained morphologically unchanged under these conditions, as confirmed by light microscopy. Only cells from passages 2 through 7 were used for the experiments.
A cell growth assay was performed as follows: Cells were plated onto 12-well culture plates and incubated overnight. The cells were treated with vehicle, vascular endothelial growth factor (VEGF, R & D Systems, Minneapolis, Minn.) at 25 ng/ml, serum, compounds, or combinations thereof. The medium is changed during the incubation period, with fresh medium and fresh test compound added every 2 days. After incubation for indicated time period at 37° C., the cells were lysed in 0.1% SDS and DNA content was measured by means of Hoechst-33258 dye and a fluorometer (model TKO-100, Hoefer Scientific Instruments, San Francisco, Calif.). It has been shown that total cellular DNA content measured in this manner correlates closely with actual cell number as determined by hemocytometer counting of trypsinized cells.
Determinations were performed in triplicate and all experiments were repeated at least three times. Results are expressed as the mean ±standard deviation, unless otherwise indicated. Statistical analysis employed Student's t-test or analysis of variance to compare quantitative data populations with normal distributions and equal variance. Data were analyzed using the Mann-Whitney rank sum test or the Kruskal-Wallis test for populations with non-normal distributions or unequal variance. A P-value of <0.05 was considered statistically significant.

[2] = system: MAP kinase phosphorylation; experiment: MAP kinase phosphorylation in BRPC; assay type: cell-based, bovine; conditions: 5 μg/ml, 1 to 60 minutes
Procedure: Experiments were also performed in which the level of MAP kinase phosphorylation was determined in BRPC treated with 75 μg/ml rBPI21 or 5 μg/ml XMP.679. […] These observations indicate that exemplary BPI protein products rBPI21 and, to a lesser extent, XMP.679, enhance MAP kinase phosphorylation in BRPC.

[3] = system: human retinal pericytes (HRPC); experiment: Human retinal pericyte proliferation assay (Methylene blue, OD650); assay type: cell-based; conditions: 5% FBS
Procedure: In addition to studies with primary cell cultures of bovine retinal pericytes described above, experiments were performed with a human cell line obtained from Clonetics (San Diego, Calif.) of retinal pericytes (catalog no. CC-2542 PyCRt). These human retinal pericytes (HRPC) were cultured in Dulbecco's modified Eagle's medium (DMEM, Gibco BRL, Grand Island, N.Y.) with 5.6 mM glucose and 20% fetal bovine serum (FBS, Gibco BRL, Grand Island, N.Y.).
Proliferation assays were performed as follows: HRPC were plated onto 24-well culture plates (3000 cells/well) in 5 or 10% FBS-DMEM with 5.6 mM glucose and incubated overnight. The cells were treated once with vehicle alone or with vehicle and several concentrations of XMP.627 ([SEQ ID NO: 4]), XMP.664 ([SEQ ID NO: 5]), XMP.679 ([SEQ ID NO: 3]), or XMP.728 ([SEQ ID NO: 6]) for 5 or 6 days. The medium was not changed, nor were additional amounts of test compounds added as described in the experiments of part A above. The cells were fixed and stained with Methylene blue and proliferation assayed by observation at OD650.

[4] = system: ischemia-induced retinal neovascularization; experiment: Ischemia-induced retinal neovascularization in neonatal mice; assay type: in vivo
Excerpt: To produce ischemia-induced retinal neovascularization, litters of 7-day-old (postnatal day 7, P7) C57BL/6J mice and their nursing mothers were exposed to 75±2% oxygen for 5 days and then returned to ambient air at age P12 as described in Smith et al., Invest. Ophthalmol. Vis. Sci., 1994, 35:101-111. […] Control animals received saline. After sacrifice and enucleation, flat-mounted, fluorescein-conjugated dextran-perfused retinas were examined to assess the retinal vasculature. This mouse model reflects the effects of hypoxia on inducing angiogenesis in the retina. After birth, the mice are exposed to a high level oxygen for 4-5 days. The effect of high levels of oxygen will decrease or prevent the growth of blood vessels in the retina. Once the mice have been removed from the hyperoxic condition to normal oxygen levels, the retina will develop hypoxia due to the lack of blood vessels. The hypoxia in the retina will induce many growth factors (including VEGF) which leads to a angiogenic response that can be quantitated by measuring the number of nuclei in the blood vessels above the internal limiting membrane. This mouse model of angiogenesis is thought to be a good animal reflection of retinopathy of prematurity. The main growth factor responsible for retinal angiogenesis in this mouse model is thought to be due to the expression of VEGF. […] These neovascular rufts were most prominent on P17-19, but after P23 the neovascularization regressed, and the vascular pattern normalized by P26. As described in Aiello et al., Proc. Nat'l Acad. Sci. USA, 1995, 92:10457-61, mice at P17 (n=5) were deeply anesthetized with pentobarbitol sodium (100 mg/kg) and sacrificed by cardiac perfusion with 4% paraformaldehyde in phosphate-buffered saline. Eyes were enucleated and fixed in 4% paraformaldehyde at 4° C. overnight, and enbedded in paraffin. Over 50 serial sections (6 μm) including optic nerve head were placed on microscope slides. After staining with periodic acid/Schiff reagent and hematoxylin, 10 intact sections of equal length, each 30 μm apart, were evaluated for a span of 300 μm. All retinal vascular cell nuclei anterior to the internal limiting membrane were counted in each section by a fully masked protocol. The mean of all 10 counted sections yielded average neovascular cell nuclei per 6 μm section per eye. No vascular cell nuclei anterior to the internal limiting membrane are observed in normal unmanipulated animals.

XMP.679: BPI-derived peptide derived from BPI domain II, SEQ ID NO: 3 (KLFKAQAKAKG; XMP.679; listed as Homo sapiens)
effect on DNA content ([1]; 1 μg/ml compound, with and without VEGF): did not have a significant effect | effect on VEGF-dependent growth ([1]; VEGF 25 ng/ml plus 1 μg/ml compound): had no effect | effect on VEGF-dependent growth ([1]; VEGF 25 ng/ml plus 5 and 15 μg/ml compound): totally prevented VEGF-dependent growth | effect on growth ([1]; compound alone, 15 μg/ml, not statistically significant): slight growth inhibitory effect | effect on MAP kinase phosphorylation [2]: increased MAP kinase phosphorylation over time | effect on HRPC growth ([3]; 10 μg/ml and higher): slight growth inhibitory effect | concentration of maximum HRPC proliferation [3]: approximately 5 μg/ml | effect on HRPC proliferation ([3]; approximately 0.5, 1, 5, 8 μg/ml): increased HRPC proliferation in a dose responsive manner | decrease of number of nuclei anterior to the internal limiting membrane ([4]; 10 mg/kg daily intraperitoneal, p<0.001): 30 to 40% | retinal vasculature compared with control mice ([4]; 10 mg/kg intraperitoneal every 24 hrs P12 to P17): fewer blood vessels with much less density and tortuosity | decrease of number of nuclei anterior to the internal limiting membrane ([4]; 20 mg/kg daily intraperitoneal, p<0.01): approximately 71% | inhibition of retinal neovascularization (dose response) ([4]; range of 10-20 mg/kg): inhibits retinal neovascularization in a dose responsive manner
